SMILES strings stand for the structures. Read-outs that look alike come from different tables or passages of the source.

The values below come from patent publication US7183099B2, “Inhibitors of autoinducer transporters” (Princeton University, priority 2001, dated 2007).

The nature of data set [1]: Stability characterisation of the signaling activity. The class given is physicochemical.
Data set [2] concerns ftsQ1p2p-lacZ reporter (SdiA). As to the kind of experiment: SdiA regulated ftsQ1p2p-lacZ reporter assay. The class given is cell-based, E. coli. The following applies: 10% osmotic shock fluids containing AI-2 activity, 2 h. The text has this:
Analysis of the effect of autoinducer on SdiA regulated gene expression. A sequence that includes the ftsQ1p and ftsQ2p promoters (Wang et al., 1991, supra) was amplified from E. coli MG1655 chromosomal DNA using the following primers: • ftsQ1p, 5′-[…]-3′ (SEQ ID NO: 19); • ftsQ2p, 5′-[…]-3′ (SEQ ID NO: 20).
The amplified product contained both the ftsQ promoters and the first 14 codons of the ftsQ gene flanked by BamHI and Bg1II sites. The ftsQ1p2p PCR product was cloned into the BamHI site of vector pMLB1034 (Silhavy et al., Experiments with Gene Fusions, Cold Spring Harbor Press, 1984) to generate a lacZ fusion that contained the promoters, ribosome binding site, and initiation codon of ftsQ. A correctly oriented clone, pMS207, and a clone containing the ftsQ1p2p insert in the opposite orientation, pMS209, were chosen for further analysis. Both inserts were sequenced to ensure that no errors were introduced during the PCR reaction.
For ftsQ regulation in E. coli, the plasmids pMS207 and pMS209 were transformed into E. coli strain MC4100 (Silhavy et al., 1984, supra), and the transformants were grown overnight in LB containing 100 mg/L ampicillin at 30° C. with aeration. For rck regulation, S. typhimurium strains BA1105 (rck::MudJ) and BA1305 (rck::MudJ sdiA) were grown overnight in LB containing 100 mg/L kanamycin at 30° C. with aeration. […]
(Reporter assays use an easily measured gene product as a stand-in for the process of interest.)

For data set [3], the system named is rck::MudJ fusion (SdiA). The experiment in a line: SdiA regulated rck::MudJ fusion assay. The following applies: AI-2 from E. coli or S. typhimurium; sdiA+ and sdiA− backgrounds. The class given is cell-based. The protocol: For ftsQ regulation in E. coli, the plasmids pMS207 and pMS209 were transformed into E. coli strain MC4100 (Silhavy et al., 1984, supra), and the transformants were grown overnight in LB containing 100 mg/L ampicillin at 30° C. with aeration. For rck regulation, S. typhimurium strains BA1105 (rck::MudJ) and BA1305 (rck::MudJ sdiA) were grown overnight in LB containing 100 mg/L kanamycin at 30° C. with aeration. The overnight cultures were diluted 20-fold into fresh medium and grown for an additional 4.5 h. At this time, each culture was divided into five identical aliquots and 10% (v/v) of one of the following was added to each aliquot: LB, 0.4 M NaCl, […] osmotic shock fluids from S. typhimurium LT2, E. coli O157 or E. coli strain DH5 (negative control). The osmotic shock fluids were prepared as described above, following pregrowth of the S. typhimurium LT2 and E. coli in LB containing 0.5% glucose for 6h. The cell suspensions were incubated at 30° C. for 2 h, after which standard -galactosidase reactions were performed on the samples (Miller, A Short Course in Bacterial Genetics, Cold Spring Harbor Laboratory Press, 1992).

Data set [4] relates to Lsr ABC transporter. The experiment in a line: Removal of exogenous AI-2 from S. typhimurium culture fluids. The class given is cell-based. The following applies: 1 h. The protocol:
(§1) Cultures of S. typhimurium luxS null strains containing a wild type lsr operon or containing mutations inactivating lsr genes were grown to mid-exponential phase in LB at 37° C. AI-2 prepared by our in vitro method was added to the cultures, and the cultures were incubated with the AI-2 for an hour. Subsequently, the cells were removed from the culture fluid by centrifugation, and the resulting cell-free culture fluids were assayed for AI-2 activity using the V. harveyi AI-2 bioassay. This assay involves measuring the increase in light production of a V. harveyi quorum sensing reporter strain that induces bioluminescence exclusively in response to the presence of AI-2. In the present experiment, the bioassay allowed us to determine the level of AI-2 activity remaining in the culture fluids of the different S. typhimurium mutants. Since all the S. typhimurium strains we used in this experiment contained null mutations in luxS, the only AI-2 that could be present in the cell-free culture fluids came from that that we added exogenously.
(§2) Relative levels of AI-2 in cell-free culture fluids of S. typhimurium strains of interest were measured using a V. harveyi bioluminescence assay, as described previously (Bassler et al., 1993; Bassler et al., 1997). Cell-free culture fluids were prepared as described (Surette and Bassler, 1998; Surette et al., 1999). These preparations were assayed for AI-2 activity at 10% (vol/vol), using V. harveyi reporter strain BB170 (luxN::Tn5), as described (Bassler et al., 1993). AI-2 activity is reported as fold induction over background of bioluminescence. To examine the role of Lsr in the uptake of AI-2, cultures of S. typhimurium were grown overnight, diluted 1:100 into fresh LB, and grown for a total of 4 hours. During the final hour of growth, the cells were incubated with 70 μM in vitro prepared AI-2 for specified times (Schauder et al., 2001). Subsequently, the cultures were chilled on ice and cell-free culture fluids were prepared. The AI-2 remaining in these preparations was measured in the V. harveyi bioluminescence assay. Assays were performed in duplicate.

Data set [5] concerns the target T1, Lsr ABC transporter (Salmonella typhimurium, UniProt Q8ZKQ1).
T1 construct: containing a wild type lsr operon; endogenous in cells; host or cells: S. typhimurium 14028 derivatives in a luxS null background (parent SS007, luxS::T-POP; also MET342, ΔlsrR)
The data set is described as above. The class given is cell-based. The following applies: for input AI-2 activity remaining: wild type lsrR strain. The protocol: as §1, §2

The test system of data set [6] is wild type S. typhimurium. The experiment in a line: Growth on AI-2 as sole carbon source. In kind it is cell-based. The text has this: One possibility is that AI-2 is initially used as a signal, then, at subsequent times, when AI-2 is no longer required for signal transduction, S. typhimurium internalizes it for use as a carbon source. To test this idea, we attempted to grow wild type S. typhimurium on in vitro prepared AI-2 as a sole carbon source. […] Therefore, growth on AI-2 cannot account for its disappearance from the medium. A second possibility is that the removal of AI-2 activity is required for its modification to another signal. For example, the LsrE epimerase, or another enzyme, could convert AI-2 into an internal signal. Finally, AI-2 could be internalized for degradation. In this case, elimination of AI-2 could serve to terminate the signalling process. Signal production coupled to subsequent elimination could allow S. typhimurium the flexibility to transition between several modes of existence. For example, as AI-2 is associated with the presence of many species of bacteria, high levels of AI-2 could be indicative of the transition from outside a host to the intestinal environment, whereas low levels of AI-2 could signal S. typhimurium that it has exited the intestinal tract for the next location in the infection (i.e., the macrophage) where S. typhimurium is not in association with high numbers of commensal bacteria. […]

Setting [7] is: wild type lsr strain (luxS null), 1 h incubation.

With `CC(=O)C(=O)C(O)CO` (centres unmarked) [AI-2, 4,5-dihydroxy-2,3-pentanedione], the “heat resistance of the activity” value in data set [1] was “heat resistant to about 80 but not 100 °C”; in data set [1] (listed as signaling activity), “heat resistant to 80 but not 100 °C”; in data set [1] (listed as signaling compound), “heat resistant to 80 °C but not 100 °C”. Moreover, the “stability of the activity to acid and base” value is “acid stable and base labile” in data set [1]; “acid stabile and base labile” in data set [1] (listed as signaling activity); “acid stable and base labile” in data set [1] (listed as signaling compound). Further, in data set [1] (cell-free culture supernatants and 0.4 M NaCl osmotic shock fluids, 30 °C), the “time the activity is stable in cell-free fluids” value is given as “at least 24 h”. Further, the “change in β-galactosidase level of MC4100/pMS207” value in data set [2] was “this level of activity did not change under any of the conditions tested here”. For the same molecule, in data set [3], the “change in β-galactosidase production of rck::MudJ” value is recorded as “No change”. For the same molecule, in data set [4] (MudJ insertion mutants in lsrA, lsrC and lsrB), the “elimination of AI-2 from the culture fluids” value is “unable to eliminate AI-2 from the culture fluids”. The “level of AI-2 versus input” value in data set [4] (ΔlsrR, lsrC::MudJ double mutant) is reported as “the level of AI-2 did not decrease compared to the input activity”. The “activity gone from the culture fluids” value in data set [5] (inactivation of lsrR, 1 h incubation) is given as “over 99%”. Also, the “AI-2 activity remaining (induction of the bioassay strain)” value in data set [5] (setting [7]) stood at 80 fold. For the same molecule, the “disappearance of AI-2 activity from the culture fluid” value in data set [5] (setting [7]) is listed as 92%. Moreover, the “input AI-2 activity remaining” value in data set [5] (2 min) turned out to be 97%; in data set [5] (15 min), 85%; in data set [5] (30 min) it was 82%; in data set [5] (45 min) it was 75%; in data set [5] (60 min), 6%. Moreover, the “growth on in vitro prepared AI-2 as a sole carbon source” value in data set [6] is reported as “could not grow on AI-2”.
